In PMC4303209, “A novel phosphatidylinositol 3-kinase (PI3K) inhibitor directs a potent FOXO-dependent, p53-independent cell cycle arrest phenotype characterized by the differential induction of a subset of FOXO-regulated genes” (Breast Cancer Research : BCR, 2014):

Test system: MCF-7 breast cancer cells
Assay: Microarray gene expression analysis (Agilent whole human genome 4 x 44K; compound vs DMSO, LIMMA log2 fold change)
Assay type: cell-based
Conditions: Apoptosis genes

## Oc1cccc(-c2nc(N3CCOCC3)c3oc4ncccc4c3n2)c1 [PI-103]
Gene 5371
  PML log2FC: -0.410
Gene 5436
  POLR2G log2FC: 0.401
Gene 5455
  POU3F3 log2FC: -0.338
Gene 5457
  POU4F1 log2FC: -0.488
Gene 5459
  POU4F3 log2FC: -0.095
Gene 5467
  PPARD log2FC: -0.189
Gene 5468
  PPARG log2FC: -0.320
Gene 5481
  PPID log2FC: -0.224
Gene 5499
  PPP1CA log2FC: -0.185
Gene 5515
  PPP2CA log2FC: -0.522
Gene 5516
  PPP2CB log2FC: -0.272
Gene 5519
  PPP2R1B log2FC: -0.663
Gene 5521
  PPP2R2B log2FC: 0.085
Gene 5524
  PPP2R4 log2FC: -0.318
Gene 5527
  PPP2R5C log2FC: 0.778
Gene 5533
  PPP3CC log2FC: 0.049
Gene 5534
  PPP3R1 log2FC: -0.344
Gene 5538
  PPT1 log2FC: 0.180
Gene 5551
  PRF1 log2FC: 0.035
Gene 5562
  PRKAA1 log2FC: 0.297
Gene 5563
  PRKAA2 log2FC: 0.067
Gene 5578
  PRKCA log2FC: -0.157
Gene 5580
  PRKCD log2FC: 0.117
Gene 5581
  PRKCE log2FC: -0.00329
Gene 5582
  PRKCG log2FC: 0.076
Gene 5583
  PRKCH log2FC: -0.184
Gene 5584
  PRKCI log2FC: 0.477
Gene 5586
  PKN2 log2FC: 0.513
Gene 5587
  PRKD1 log2FC: 0.547
Gene 5588
  PRKCQ log2FC: 0.186
Gene 5590
  PRKCZ log2FC: 0.565
Gene 5591
  PRKDC log2FC: 0.275
Gene 5595
  MAPK3 log2FC: -0.116
Gene 5598
  MAPK7 log2FC: -0.110
Gene 5608
  MAP2K6 log2FC: 0.357
Gene 5625
  PRODH log2FC: -0.118
Gene 5641
  LGMN log2FC: -0.107
Gene 5663
  PSEN1 log2FC: 0.372
Gene 5664
  PSEN2 log2FC: -0.390
Gene 5683
  PSMA2 log2FC: 0.170
Gene 5684
  PSMA3 log2FC: 0.144
Gene 5685
  PSMA4 log2FC: 0.470
Gene 5687
  PSMA6 log2FC: 0.068
Gene 5689
  PSMB1 log2FC: 0.009
Gene 5690
  PSMB2 log2FC: -0.432
Gene 5692
  PSMB4 log2FC: 0.171
Gene 5693
  PSMB5 log2FC: -0.219
Gene 5694
  PSMB6 log2FC: -0.080
Gene 5698
  PSMB9 log2FC: -0.100
Gene 5699
  PSMB10 log2FC: -0.116
Gene 5700
  PSMC1 log2FC: -0.009
Gene 5701
  PSMC2 log2FC: 0.279
Gene 5702
  PSMC3 log2FC: -0.185
Gene 5705
  PSMC5 log2FC: -0.314
Gene 5706
  PSMC6 log2FC: 0.515
Gene 5707
  PSMD1 log2FC: 0.029
Gene 5709
  PSMD3 log2FC: -0.074
Gene 5710
  PSMD4 log2FC: -0.036
Gene 5711
  PSMD5 log2FC: 0.189
Gene 5713
  PSMD7 log2FC: 0.00364
Gene 5714
  PSMD8 log2FC: -0.122
Gene 5715
  PSMD9 log2FC: -0.396
Gene 5716
  PSMD10 log2FC: -0.344
Gene 5717
  PSMD11 log2FC: -0.327
Gene 5718
  PSMD12 log2FC: -0.768
Gene 5720
  PSME1 log2FC: 0.313
Gene 5728
  PTEN log2FC: 0.958
Gene 5737
  PTGFR log2FC: -0.038
Gene 5740
  PTGIS log2FC: -0.013
Gene 5741
  PTH log2FC: -0.180
Gene 5743
  PTGS2 log2FC: -0.053
Gene 5747
  PTK2 log2FC: 0.040
Gene 5777
  PTPN6 log2FC: 0.257
Gene 5788
  PTPRC log2FC: -0.026
Gene 5794
  PTPRH log2FC: 0.545
Gene 5879
  RAC1 log2FC: -0.226
Gene 5883
  RAD9A log2FC: 0.679
Gene 5885
  RAD21 log2FC: 0.829
Gene 5896
  RAG1 log2FC: 0.688
Gene 5899
  RALB log2FC: 0.076
Gene 5914
  RARA log2FC: -0.310
Gene 5916
  RARG log2FC: -0.122
Gene 5921
  RASA1 log2FC: 0.472
Gene 5924
  RASGRF2 log2FC: 0.069
Gene 5925
  RB1 log2FC: 0.674
Gene 5970
  RELA log2FC: -0.351
Gene 5977
  DPF2 log2FC: 0.525
Gene 5978
  REST log2FC: 0.317
Gene 6091
  ROBO1 log2FC: 0.307
Gene 6092
  ROBO2 log2FC: 0.013
Gene 6093
  ROCK1 log2FC: 0.642
Gene 6189
  RPS3A log2FC: 0.496
Gene 6194
  RPS6 log2FC: 0.259
Gene 6195
  RPS6KA1 log2FC: -0.106
Gene 6197
  RPS6KA3 log2FC: 0.273
Gene 6198
  RPS6KB1 log2FC: 0.247
Gene 6233
  RPS27A log2FC: 0.447
Gene 6242
  RTKN log2FC: -0.055
Gene 6272
  SORT1 log2FC: 0.382
Gene 6279
  S100A8 log2FC: -0.346
Gene 6285
  S100B log2FC: -0.112
Gene 6304
  SATB1 log2FC: 0.836
Gene 6343
  SCT log2FC: -0.026
Gene 6347
  CCL2 log2FC: -0.193
Gene 6348
  CCL3 log2FC: -0.075
Gene 6352
  CCL5 log2FC: 0.070
Gene 6366
  CCL21 log2FC: -0.020
Gene 6376
  CX3CL1 log2FC: -0.245
Gene 6387
  CXCL12 log2FC: -0.262
Gene 6416
  MAP2K4 log2FC: -0.057
Gene 6418
  SET log2FC: 0.155
Gene 6422
  SFRP1 log2FC: 0.243
Gene 6423
  SFRP2 log2FC: -0.008
Gene 6424
  SFRP4 log2FC: 0.079
Gene 6425
  SFRP5 log2FC: -0.036
Gene 6453
  ITSN1 log2FC: 0.185
Gene 6461
  SHB log2FC: -0.563
Gene 6469
  SHH log2FC: -0.168
Gene 6477
  SIAH1 log2FC: 0.170
Gene 6478
  SIAH2 log2FC: -0.479
Gene 6491
  STIL log2FC: 0.014
Gene 6495
  SIX1 log2FC: -0.700
Gene 6497
  SKI log2FC: -0.565
Gene 6548
  SLC9A1 log2FC: -0.632
Gene 6586
  SLIT3 log2FC: -0.267
Gene 6591
  SNAI2 log2FC: 0.040
Gene 6608
  SMO log2FC: 0.037
Gene 6609
  SMPD1 log2FC: 0.629
Gene 6610
  SMPD2 log2FC: -0.222
Gene 6614
  SIGLEC1 log2FC: -0.395
Gene 6615
  SNAI1 log2FC: -0.868
Gene 6620
  SNCB log2FC: -0.584
Gene 6622
  SNCA log2FC: -0.028
Gene 6648
  SOD2 log2FC: 0.190
Gene 6651
  SON log2FC: -0.153
Gene 6657
  SOX2 log2FC: 0.228
Gene 6659
  SOX4 log2FC: 0.369
Gene 6662
  SOX9 log2FC: -2.014
Gene 6663
  SOX10 log2FC: -0.037
Gene 6672
  SP100 log2FC: 0.688
Gene 6688
  SPI1 log2FC: -0.418
Gene 6693
  SPN log2FC: 0.011
Gene 6714
  SRC log2FC: -0.352
Gene 6733
  SRPK2 log2FC: 0.776
Gene 6750
  SST log2FC: 0.576
Gene 6753
  SSTR3 log2FC: -0.180
Gene 6770
  STAR log2FC: -0.178
Gene 6772
  STAT1 log2FC: 0.221
Gene 6776
  STAT5A log2FC: 0.392
Gene 6777
  STAT5B log2FC: 0.109
Gene 6789
  STK4 log2FC: -0.017
Gene 6794
  STK11 log2FC: 0.00114
Gene 6812
  STXBP1 log2FC: -0.400
Gene 6832
  SUPV3L1 log2FC: 0.284
Gene 6868
  ADAM17 log2FC: 0.527
Gene 6880
  TAF9 log2FC: 0.095
Gene 6885
  MAP3K7 log2FC: 0.00173
